The values below come from patent US4709027A, “Bicyclic spirosulfonimides with psychotropic activity” (American Home Products Corporation, priority 1986, dated 1987).

Read-outs that look alike come from different tables or passages of the source.

In experiment [1] the test system is 5-HT-1A serotonin receptor. The experiment can be described thus: ex vivo inhibition of 5-HT-1A serotonin receptor binding (3H-8-OH-DPAT, hippocampal membranes). Further details: species or system rats. To be noted: at 1 μM of drug concentration. The protocol:
Several groups of rats (4-6 rats/group) are injected with test compound or the appropriate vehicle. Thirty minutes later, unless otherwise noted, rats are decapitated and their brains removed. Various brain regions are dissected and rapidly frozen and maintained at -70° C. until used.
Hippocampal tissue is dissected and homogenized on ice in 40 vols of buffer (50 mM Tris HCl, pH=7.7) using a Polytron homogenizer at setting 5 for 3×15 sec bursts. The homogenate is then centrifuged at 20,000 rpm (RC5-B; 50,000 g) and the supernatant discarded. The pellet is resuspended in 40 vols of the same buffer and incubated at 37° C. for 10 minutes to aid in the removal of endogenous serotonin. the homogenate is then centrifuged (as above) and the supernatant discarded. […]
The homogenate (50 μl; 0.4-0.6 mg protein/sample) is incubated with 100 μl (1.5-1.8 nM) ^3 H-8-hydroxy-2-(di-n-propylamino)tetraline in a final volume of 2 ml of buffer for 10 minutes at 37° C. […] The vials are then counted in a Packard 460 CD scintillation counter.
Specific binding is calculated for each of the treatment protocols and is defined as total binding less binding in the presence of excess unlabeled serotonin (1 μM). Specific binding obtained in vehicle-treated rats is compared to that obtained in animals receiving a single or various doses of test compound and expressed as percent of control.

Experiment [2] is described as follows: conditioned avoidance (discrete trial) test. Format: in vivo, male CD rats. The conditions noted are these: Rattus norvegicus, po, rats, read-out: AB50 (dose producing 50% block in avoidance responding), discrete trial. The protocol:
The antipsychotic activity of the compounds of the invention is assessed via the conditioned avoidance (discrete trial) test. This test has excellent clinical correlation for antipsychotic activity.
Male CD rats (Charles River) maintained at approximately 400-450 gm body weight are used. Rats trained previously are placed in plexiglass experimental chambers equipped with a response lever, house light, and sonalert. A steel grid floor is wired for presentation of electric shock. Each trial consists of a fifteen-second warning tone (conditioned stimulus), continuing for an additional fifteen seconds accompanied by electric shock, (unconditioned stimulus). The rat can terminate a trial at any point by depression of the response lever. […]
The following experimental parameters are recorded by computer; (1) the number of interval responses, (2) the number of avoidance responses, (3) the number of escape responses, and (4) the number of trials in which no response occurred.
Response counts are summed over all subjects at a given dose. […] This number is expressed as a percentage of the total trials. Control performance is arbitrarily assigned a value of 100% for avoidance and the dose calculated to produce a 50% block in avoidance responding (AB50) is obtained from a dose-effect regression line fitted by the method of least squares. […]

Experiment [3] is described as follows: conditioned avoidance (shelf-jump response) test. Format: in vivo, male CD rats. To be noted: i.p., rats. From the text:
A test designed to determine the potential antipsychotic activity of the compounds of the invention is the conditioned avoidance (shelf-jump response) test.
Male CD rats (Charles River) maintained at approximately 400-450 gm body weight are used. […] A moveable wall, controlled by a motor, determines whether the rat has access to the shelf at any time during the experiment. The experimental chamber also contains a house light and sonalert. A steel grid floor in the main chamber is wired for presentation of electric shock. Each trial consists of a fifteen-second warning tone (conditioned stimulus), continuing for an additional fifteen seconds accompanied by electric shock, (unconditioned stimulus). A response (jumping onto the exposed shelf of the upper chamber) occurring during the initial fifteen-second warning tone is considered an avoidance response, while a response occurring during shock delivery is considered an escape response. Trials are presented on a fixed interval schedule of one minute. The session consists of thirty-six trials. Animals are run twice weekly with control sessions always preceding a drug run, and with at least one day intervening. Compounds are administered i.p. or p.o. at appropriate pre-treatment times to a minimum of five rats at each dose level over a range of doses.
The following experimental parameters are recorded by computer: (1) the number of avoidance responses, (2) the number of escape responses, and (3) the number of trials in which no response occurred.
Response counts are summed over all subjects at a given dose. […] This number is expressed as a percentage of the total trials. Control performance is arbitrarily assigned a value of 100% for avoidance and the dose calculated to produce a 50% block in avoidance responding (AB50) is obtained from a dose-effect regression line fitted by the method of least squares. Potential anti-psychotic compounds suppress avoidance responding and increase escape responding.

In the case of `CC1CC(=O)N(CCCCN2CCN(c3cncc(Cl)n3)CC2)S(=O)(=O)N1` (stereo not drawn) [Example 1, 2-[4-[4-(6-Chloro-2-pyrazinyl)-1-piperazinyl]butyl]-5,6-dihydro-5-methyl-2H-1,2,6-thiadiazin-3(4H)-one 1,1 dioxide], the “displacement of specific 3H-8-OH-DPAT binding from hippocampal membranes” value in experiment [1] came to 61%. In addition, the ED50 in experiment [2] (perorally, unit inferred) was 32.5 mg/kg. Besides, the “Active at (dose), shelf-jump” value in experiment [3] was determined as 40 mg/kg.
For `O=C1N(CCCCN2CCN(c3ncccn3)CC2)S(=O)(=O)NC12CCCCC2` [Example 2, 3-[4-[4-(2-Pyrimidinyl)-1-piperazinyl]butyl]2-thia-1,3-diazaspiro[4,5]decan-4-one 2,2-dioxide], in experiment [3], the “Active at (dose), shelf-jump” value turned out to be 40 mg/kg.
Turning to `CC1CC(=O)N(CCCCN2CCN(c3ncccn3)CC2)S(=O)(=O)N1` (stereo not drawn) [Example 3, 5,6-Dihydro-5-methyl-2-[4-[4-(2-pyrimidinyl)-1-piperazinyl]butyl]-2H-1,2,6-thiadiazin-3(4H)-one 1,1-dioxide], the “Active at (dose), shelf-jump” value in experiment [3] is listed as 40 mg/kg.
Turning to `O=C1CC2(CCCC2)CC(=O)N1CCCCN1CCN(c2ncccn2)CC1` [Buspirone, 8-[4-[4-(2-pyrimidinyl)-1-piperazinyl]butyl]-8-azaspiro[4.5]decane-7,9-dione, reference compound], in experiment [2] (peroral administration, range in parentheses), the ED50 came to 47.9 mg/kg.
